The target of one data set is T1, PLD2 (Homo sapiens, UniProt O14939).
T1 construct: made in house
In words: In vitro PLD activity, exogenous substrate assay, PLD2. The note with it: purified recombinant PLD2, 30 min at 37° C. It is filed as biochemical. On the procedure:
In FIG. 13A, MDA-MB-231 cells were plated as in FIGS. 12A-C and then shifted to either 10% serum or 0.5% serum overnight as indicated. Honokiol (20 μM) or control ethanol was then added for 4 hr as indicated, at which time the cells were harvested and the levels of PBt were determined as in FIGS. 12A-C. The experiment shown is representative of at least three independent experiments. In FIG. 13B, the effect of honokiol on the activity of PLD isoforms was measured using exogenous substrate assay as described previously (Henage et al., “Kinetic Analysis of a Mammalian Phospholipase D: Allosteric Modulation by Monomeric GTPases, Protein Kinase C, and Polyphosphoinositides,” J. Biol. Chem. 281:3408-17 (2006), which is hereby incorporated by reference in its entirety). […] The amount of background was determined and subtracted using a bovine serum albumin standard. […]
For in vivo PLD activity, cells were plated in 60 mm culture dishes in DMEM with 10% serum at a density that would allow them to grow to about 80% confluence after 2 days, then cells were shifted to DMEM containing 0.5% or 10% serum as indicated in the figure legends overnight. […] Briefly, PLD activity was measured by the release of [methyl-^3H] choline from [choline-methyl-^3H]dipalmitoyl-phosphatidylcholine. […]

For data set [1] the following is noted: mouse models, high concentrations; cited from earlier work.
In a further data set the test system is MDA-MB-231 cells. In words: Cell viability (trypan blue) and PARP cleavage in MDA-MB-231 cells. Format: cell-based, human. The note with it: honokiol 20 μM. On the procedure:
MDA-MB-231 cells were plated in DMEM with 10% serum for 48 hr then changed to DMEM with either 10% or 0.5% serum overnight as indicated. Honokiol (20 μM) or control ethanol was then added either at the time of changing media (24 hr time point), or 4 hr prior to harvesting (4 hr time point) as indicated. The cells were then examined for cell viability and PARP cleavage as described previously (Chen et al., “Alternative Phospholipase D/mTOR Survival Signal in Human Breast Cancer Cells,” Oncogene 24:672-9 (2005), which is hereby incorporated by reference in its entirety). The Western blot is representative of at least three independent experiments. The error bars for cell viability represent the standard deviation for triplicate samples from a representative experiment repeated three times.
Cell viability was determined by trypan blue exclusion. After various treatments, cells were harvested, washed, and treated with trypan blue at a concentration of 0.4% w/v. After 10 min, trypan blue uptake (dead cells) was determined by counting on a hemocytometer. Apoptosis was evaluated by examination of cleavage of the caspase 3 substrate PARP as described previously (Chen et al., “Alternative Phospholipase D/mTOR Survival Signal in Human Breast Cancer Cells,” Oncogene 24:672-9 (2005), which is hereby incorporated by reference in its entirety).
The effect of honokiol on cell viability and cleavage of the caspase 3 substrate poly-(ADP-ribose) polymerase (“PARP”)—an indicator of apoptotic cell death—was examined in the MDA-MB-231 and 786-0 cells. The effect of honokiol on cell viability and PARP cleavage in 0.5% serum was examined after 4 hr and 24 hr honokiol treatment and in 10% serum after 24 hr honokiol treatment in the MDA-MB-231 cells. […] Importantly, the cells were still viable after 4 hr of honokiol treatment—the time point used in FIGS. 12 and 13 where the effect of honokiol upon PLD activity and on S6K and 4E-BP1 phosphorylation was examined.

A further data set deals with tumor growth. The conditions noted are these: Bai et al. 2003; cited from earlier work.
Data set [2] deals with human prostate cancer cells. The conditions noted are these: Shigemura et al. 2007; cited from earlier work.

T1 sequence (O14939 whole entry): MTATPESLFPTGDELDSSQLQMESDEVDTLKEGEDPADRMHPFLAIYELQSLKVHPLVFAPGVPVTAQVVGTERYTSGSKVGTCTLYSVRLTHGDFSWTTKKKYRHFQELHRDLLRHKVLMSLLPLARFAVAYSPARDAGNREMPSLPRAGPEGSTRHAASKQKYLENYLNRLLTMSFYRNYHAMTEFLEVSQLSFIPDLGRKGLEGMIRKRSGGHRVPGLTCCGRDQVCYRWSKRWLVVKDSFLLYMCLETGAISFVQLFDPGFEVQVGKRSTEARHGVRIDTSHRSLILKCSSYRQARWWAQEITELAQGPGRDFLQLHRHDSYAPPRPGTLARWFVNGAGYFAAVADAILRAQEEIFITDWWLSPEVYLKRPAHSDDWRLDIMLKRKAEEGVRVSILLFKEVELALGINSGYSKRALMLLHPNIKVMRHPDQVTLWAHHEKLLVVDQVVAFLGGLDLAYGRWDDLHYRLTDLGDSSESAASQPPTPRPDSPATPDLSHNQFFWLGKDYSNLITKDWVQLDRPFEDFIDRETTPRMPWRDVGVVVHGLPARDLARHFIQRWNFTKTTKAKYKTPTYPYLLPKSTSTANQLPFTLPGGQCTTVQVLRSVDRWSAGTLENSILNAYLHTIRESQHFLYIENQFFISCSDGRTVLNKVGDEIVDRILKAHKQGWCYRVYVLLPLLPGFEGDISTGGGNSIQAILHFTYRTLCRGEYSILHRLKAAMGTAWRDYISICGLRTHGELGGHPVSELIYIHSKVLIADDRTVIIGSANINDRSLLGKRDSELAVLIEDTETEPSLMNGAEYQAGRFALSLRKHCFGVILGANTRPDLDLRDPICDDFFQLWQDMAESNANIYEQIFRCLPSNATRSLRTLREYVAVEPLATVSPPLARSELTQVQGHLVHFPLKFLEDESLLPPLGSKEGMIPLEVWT

On to `C=CCc1ccc(O)c(-c2ccc(O)c(CC=C)c2)c1` [honokiol, Honokiol], for which the “in vitro activity of PLD2” value on PLD2 is “no significant effect”. In addition, the tolerability result in data set [1] was “well tolerated”. The cell viability result in the data set with MDA-MB-231 cells (4 hr, 0.5% serum) is on record as “still viable”. Besides, in the data set on MDA-MB-231 cells (24 hr, 0.5% serum), the PARP cleavage result is “increased” and the cell viability entry is listed as “reduced”. In the data set on MDA-MB-231 cells (24 hr, 10% serum), the PARP cleavage increased entry was “not” and the cell viability reduced result is reported as “not”. The “tumor growth in mouse xenografts” value in the data set on tumor growth is on record as “blocked tumor growth”. For the same compound, the “bone metastatic growth of human prostate cancer cells” value in data set [2] is listed as “inhibit the bone metastatic growth”.
